Test results published in US8410159B2, “Imidazole compounds having pharmaceutical activity towards the sigma receptor” (Laboratories del Dr. Esteve, S.A., priority 2006, dated 2013).

Experiments:
σ1-receptor = target: T1, σ1-receptor (Cavia porcellus, UniProt Q60492); assay: Sigma-1 receptor binding assay, [3H](+)-pentazocine, brain membranes; conditions: guinea pig brain membranes; for inhibition at 0.1 µM: compound 10^−7 M; for inhibition at 0.1 µM / inhibition at 0.01 µM: [3H](+)-pentazocine 0.5 nM; for inhibition at 0.01 µM: compound 10^−8 M; for Ki: σ1, [3H](+)-pentazocine
T1 construct: guinea pig brains were homogenized; from tissue; host or cells: guinea pig brain membranes
Experimental: Brain membrane preparation and binding assays for the σ1-receptor were performed as described (DeHaven-Hudkins et al., 1992) with some modifications. In brief, guinea pig brains were homogenized in 10 vols. (w/v) of Tris-HCl 50 mM 0.32 M sucrose, pH 7.4, with a Kinematica Polytron PT 3000 at 15000 r.p.m. for 30 s. The homogenate was centrifuged at 1000 g for 10 min at 4° C. and the supernatants collected and centrifuged again at 48000 g for 15 min at 4° C. The pellet was resuspended in 10 volumes of Tris-HCl buffer (50 mM, pH 7.4), incubated at 37° C. for 30 min, and centrifuged at 48000 g for 20 min at 4° C. Following this, the pellet was resuspended in fresh Tris-HCl buffer (50 mM, pH 7.4) and stored on ice until use.
Each assay tube contained 10 μL of [^3H](+)-pentazocine (final concentration of 0.5 nM), 900 μL of the tissue suspension to a final assay volume of 1 mL and a final tissue concentration of approximately 30 mg tissue net weight/mL. Non-specific binding was defined by addition of a final concentration of 1 μM haloperidol. All tubes were incubated at 37° C. for 150 min before termination of the reaction by rapid filtration over Schleicher & Schuell GF 3362 glass fibre filters [previously soaked in a solution of 0.5% polyethylenimine for at least 1 h]. Filters were then washed with four times with 4 mL of cold Tris-HCl buffer (50 mM, pH 7.4). Following addition of scintillation cocktail, the samples were allowed to equilibrate overnight. The amount of bound radioactivity was determined by liquid scintillation spectrometry using a Wallac Winspectral 1414 liquid scintillation counter. Protein concentrations were determined by the method of Lowry et al. (1951).

[1] = tested on: capsaicin-induced allodynia; assay: von Frey filaments in a model of capsaicin-induced allodynia; format: in vivo; conditions: percent analgesia compared to control, mice, mechanical stimulus (von Frey) after capsaicin
Experimental: In-Vivo-Experiments Using von Frey Filaments in a Model of […]-Induced Allodynia: This model is described in detail in the experimental part of WO 2006/010587 A1, examples 1 and 2, the description being included here by reference. Capsaicin is thereby injected into experimental animals to produce acute pain followed by allodynia. Briefly after habituation mice were first treated with the test-compound (or not in controls). Then capsaicin (1% DMSO) is injected into their paw resulting in developing pain in the effected paw. The effected paw is then treated with a mechanical stimulus and the latency time before the paw is withdrawn is measured.

T1 sequence (Q60492 whole entry): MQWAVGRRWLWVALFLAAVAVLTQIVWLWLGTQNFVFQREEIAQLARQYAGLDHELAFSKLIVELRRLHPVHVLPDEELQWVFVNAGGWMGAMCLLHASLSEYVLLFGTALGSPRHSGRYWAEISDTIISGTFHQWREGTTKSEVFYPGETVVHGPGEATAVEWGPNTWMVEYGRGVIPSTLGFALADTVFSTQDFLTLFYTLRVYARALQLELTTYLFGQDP

Row | Compound | inhibition at 0.1 µM (σ1-receptor) [%] | inhibition at 0.01 µM (σ1-receptor) [%] | Ki (σ1-receptor) [nM] | melting point [°C] | Analgesia (16 mg/kg), i.p. % [1] [%]
1 | Clc1ccc(-n2ccc(NCCN3CCCCC3)n2)cc1Cl.O=C(O)C(=O)O [Example 6, 1-(3,4-Dichlorophenyl)-N-(2-(piperidin-1-yl)ethyl)-1H-pyrazol-3-amine oxalate] | 88.3 | 53.6 | 7.1 | 168 to 172 | 42
2 | O=C(CN1CCOCC1)Nc1ccn(-c2cccc(Cl)c2)n1.O=C(O)C(=O)O |  |  |  | 219 to 220 | 
3 | CCN(CC)CC(=O)Nc1ccn(-c2ccc(Cl)c(Cl)c2)n1 [Example 4, N-(1-(3,4-dichlorophenyl)-1H-pyrazol-3-yl)-2-(diethylamino)acetamide] | 77.3 | 51.7 | 6.4 | 69 to 74 | 47
4 | O=C(O)C(=O)O.c1ccc2cc(-n3ccc(NCCN4CCOCC4)n3)ccc2c1 |  |  |  | 148 to 153 | 
5 | Cc1cc(SCCN2CCCCC2)nn1-c1ccc(Cl)c(Cl)c1.O=C(O)C(=O)O |  |  |  | 162 to 164 | 
6 | O=C(CN1CCCCC1)Nc1ccn(-c2ccc(Cl)c(Cl)c2)n1 [Example 5, N-[1-(3,4-dichlorophenyl)-1H-pyrazol-3-yl)-2-(piperidin-1-yl)acetamide] | 68.2 | 46.1 |  | 78 to 82 | 
7 | O=C(CN1CCCCC1)Nc1ccn(C2CCCCC2)n1.O=C(O)C(=O)O |  |  |  | 177 to 181 | 
8 | CN1CCN(CC(=O)Nc2ccn(-c3ccc(Cl)c(Cl)c3)n2)CC1.O=C(O)C(=O)O |  |  |  | 213 to 217 | 
9 | Clc1ccc(-n2ccc(NCCN3CCCCCC3)n2)cc1Cl.O=C(O)C(=O)O |  |  |  | 157 to 159 | 
10 | CCN(CC)CCSc1cc(C)n(-c2ccc(Cl)c(Cl)c2)n1.O=C(O)C(=O)O [Example 70, 2-(1-(3,4-dichlorophe-nyl)-5-methyl-1H-pyrazol-3-ylthio)-N,N-diethylethanamine oxalate] | 93.1 | 34.6 |  | 184 to 188 | 
11 | CN(CCNc1ccn(-c2ccc(Cl)c(Cl)c2)n1)C1CCCCC1.O=C(O)C(=O)O |  |  |  | 114 to 116 | 
12 | Cc1cc(SCCN2CCOCC2)nn1-c1ccc(Cl)c(Cl)c1.O=C(O)C(=O)O [Example 68, 4-(2-(1-(3,4-dichlorophenyl)-5-methyl-1H-pyrazol-3-ylthio)ethyl) morpholine oxalate] | 93.5 | 91.2 | 23 ± 0.6 |  | 21
13 | CN(CC(=O)Nc1ccn(-c2ccc(Cl)c(Cl)c2)n1)Cc1ccccc1.O=C(O)C(=O)O |  |  |  | 206 to 209 | 
14 | Cc1cc(SCCN2CCCC2)nn1-c1ccc(Cl)c(Cl)c1.O=C(O)C(=O)O |  |  |  | 144 to 151 | 
15 | Clc1ccc(-n2ccc(NCCN3CCN(C4CCCCC4)CC3)n2)cc1Cl [Example 14, N-(2-(4-cyclohexylpiperazin-1-yl)ethyl)-1-(3,4-dichlorophenyl)-1H-pyrazol-3-amine] | 100 | 72.1 |  | 115 to 119 | 
16 | CN1CCN(CCNc2ccn(-c3ccc(Cl)c(Cl)c3)n2)CC1.O=C(O)C(=O)O |  |  |  | 230 to 232 | 
17 | O=C(CN1CCCCCC1)Nc1ccn(-c2ccc(Cl)c(Cl)c2)n1 [Example 28, 2-(azepan-1-yl)-N-(1-(3,4-dichlorophenyl)-1H-pyrazol-3-yl)acetamide] |  |  |  | 99 to 102 | 
18 | O=C(CN1CCCC1)Nc1ccn(C2CCCCC2)n1.O=C(O)C(=O)O |  |  |  | 127 to 130 | 
19 | Clc1ccc(-n2ccc(NCCN3CCOCC3)n2)cc1Cl [Example 3, 1-(3,4-dichlorophenyl)-N-(2-morpholinoethyl)-1H-pyrazol-3-amine] | 78.9 | 54.3 |  |  | 
20 | CCN(CC)CCNc1ccn(-c2ccc(Cl)c(Cl)c2)n1 [Example 1, 1-(3,4-dichlorophenyl)-N-(2-(diethylamino)ethyl)-1H-pyrazol-3-amine] | 66.6 | 1.8 | 46.4 |  | 
21 | CN(CC(=O)Nc1ccn(-c2ccc(Cl)c(Cl)c2)n1)C1CCCCC1 [Example 11, 2-(cyclohexyl (methyl)amino)-N-(1-(3,4-dichlorophenyl)-1H-pyrazol-3-yl)acetamide] | 91.8 | 68.8 |  | 88 to 94 | 
22 | Clc1cccc(-n2ccc(NCCN3CCOCC3)n2)c1.O=C(O)C(=O)O |  |  |  | 144 to 146 | 
23 | O=C(CN1CCOCC1)Nc1ccn(-c2ccc3ccccc3c2)n1.O=C(O)C(=O)O |  |  |  | 213 to 217 | 
24 | O=C(CN1CCOCC1)Nc1ccn(-c2ccc(Cl)c(Cl)c2)n1 [Example 2, N-(1-(3,4-dichlorophenyl)-1H-pyrazol-3-yl)-2-morpholinoacetamide] | 37.8 | 25.9 |  |  | 
